# Assay results from patent US4130709A, “Pleuromutilin glycoside derivatives” (Eli Lilly and Company, priority 1977, dated 1978).
# Like-named read-outs stand apart in the source and are kept apart here.
# What was measured:
# [1] = toxicity (LD50) on intraperitoneal injection in mice; settings: mouse, in vivo, ip
# Pasteurella hemolytica = experiment: in vitro tests against Pasteurella hemolytica; type: cell-based
# Spiroplasma citri = experiment: in vitro inhibition of Spiroplasma citri measured by a color reaction; type: cell-based; set-up: key to Activity (color reaction): Red (R) includes complete inhibition; red-orange (RO) indicates partial inhibition; yellow (Y) indicates no inhibition
# Treponema hyodysenteriae = experiment: in vitro agar plate test against Treponema hyodysenteriae; settings: four days anaerobic
# [2] = test system: Staphylococcus aureus (H-Heatley) NRRL B-314; experiment: in vitro turbidometric assay (Autoturb Microbiological Assay System) against Staphylococcus aureus; type: cell-based; settings: nutrient broth pH 7, approximately 4 hours at 37° C., A-40104 factor A as standard
# Outline: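 S. aureus H-Heatley NRRL B-314 grown in nutrient broth (pH 7), about 4 h at 37° C, with turbidity read on the Autoturb system. Compounds were dissolved in water and diluted to roughly 2.5–5.0 mcg activity/ml. Activity units were set against an A-40104 factor A standard curve (1.25–6.25 mcg/ml).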
# [3] = test system: Staphylococcus aureus 3055; experiment: in vivo antimicrobial activity, experimental infection in mice, Staphylococcus aureus 3055; settings: two doses, read-out: ED50 × 2
# Method: (§1) Typical compounds of the present invention have shown in vivo antimicrobial activity against experimental bacterial infections. When two doses of these compounds were administered to mice in illustrative infections, the activity observed was measured as an ED50 value [effective dose in mg/kg to protect 50% of the test animals; see Warren Wick, et al., J. Bacteriol. 81, 233-235 (1961)].
# [4] = test system: Streptococcus pyrogenes C203; experiment: in vivo antimicrobial activity, experimental infection in mice, Streptococcus pyrogenes C203; settings: sc, two doses, read-out: ED50 × 2
# Method: as §1
# [5] = test system: Streptococcus pneumoniae Park I; experiment: in vivo antimicrobial activity, experimental infection in mice, Streptococcus pneumoniae Park I; settings: sc, read-out: ED50 × 2
# Method: as §1
# [6] = test system: Streptococcus pneumoniae B1492; experiment: in vivo antimicrobial activity, experimental infection in mice, Streptococcus pneumoniae B1492; settings: sc, two doses, infecting challenge 340 × LD50 (ip), read-out: ED50 × 2
# Method: as §1
# Actinomyces israelii = experiment: standard agar-dilution test, anaerobic bacteria; type: cell-based; settings: 24-hour incubation
# Clostridium perfringens = experiment: microbe, parasite or virus in culture; type: cell-based; settings: 24 h
# [7] = test system: Bacteroides thetaiotaomicron; experiment: standard agar-dilution test, anaerobic bacteria; type: cell-based; settings: 24-hour incubation
# Method: (§2) Table IV summarizes the activity of typical compounds of this invention, as determined by the standard agar-dilution test.
# (§3) *Endpoint read after 24-hour incubation
# Clostridium septicum = experiment: standard agar-dilution test, anaerobic bacteria; type: cell-based; settings: 24-hour incubation
# Method: as §2, §3
# Eubacterium aerofaciens = experiment: standard agar-dilution test, anaerobic bacteria; type: cell-based; settings: Collinsella aerofaciens; Eubacterium aerofaciens; 24-hour incubation; read-out: MIC
# [8] = test system: Peptococcus asaccharolyticus; experiment: standard agar-dilution test, anaerobic bacteria; type: cell-based; settings: Peptoniphilus asaccharolyticus, 24-hour incubation
# Peptococcus prevoti = experiment: standard agar-dilution test, anaerobic bacteria; type: cell-based; settings: Peptococcus prevoti; 24-hour incubation; read-out: MIC
# [9] = test system: Peptostreptococcus anaerobius; experiment: standard agar-dilution test, anaerobic bacteria; type: cell-based; settings: 24-hour incubation
# [10] = test system: Peptostreptococcus intermedius; experiment: standard agar-dilution test, anaerobic bacteria; type: cell-based; settings: Peptostreptococcus intermedius; 24-hour incubation; read-out: MIC
# Bacteroides fragilis 111 = experiment: standard agar-dilution test, anaerobic bacteria; type: cell-based; settings: Bacteroides fragilis 111; 24-hour incubation; read-out: MIC
# [11] = test system: Bacteroides fragilis 1877; experiment: standard agar-dilution test, anaerobic bacteria; type: cell-based; settings: Bacteroides fragilis 1877; 24-hour incubation; read-out: MIC
# [12] = test system: Bacteroides fragilis 1936B; experiment: standard agar-dilution test, anaerobic bacteria; type: cell-based; settings: Bacteroides fragilis 1936B; 24-hour incubation; read-out: MIC
# [13] = test system: Bacteroides melaninogenicus 1856/28; experiment: standard agar-dilution test, anaerobic bacteria; type: cell-based; settings: Prevotella intermedia; Bacteroides melaninogenicus 1856/28; 24-hour incubation; read-out: MIC
# [14] = test system: Bacteroides melaninogenicus 2736; experiment: standard agar-dilution test, anaerobic bacteria; type: cell-based; settings: Bacteroides melaninogenicus 2736; 24-hour incubation; read-out: MIC
# Bacteroides vulgatis = experiment: standard agar-dilution test, anaerobic bacteria; type: cell-based; settings: Bacteroides vulgatis; 24-hour incubation; read-out: MIC
# Bacteroides corrodens = experiment: standard agar-dilution test, anaerobic bacteria; type: cell-based; settings: Eikenella corrodens; Bacteroides corrodens; 24-hour incubation; read-out: MIC
# Fusobacterium symbiosum = experiment: standard agar-dilution test, anaerobic bacteria; type: cell-based; settings: Fusobacterium symbiosum; 24-hour incubation; read-out: MIC
# [15] = test system: Fusobacterium necrophorum; experiment: standard agar-dilution test, anaerobic bacteria; type: cell-based; settings: 24-hour incubation, read-out: MIC
# Mycoplasma gallisepticum = experiment: in vitro broth-dilution studies, mycoplasma; type: cell-based; settings: Mycoplasmoides gallisepticum
# Source text: (§4) The minimal inhibitory concentrations (MIC's) of a number of typical compounds of the present invention (R^2 =H in group tested) against various mycoplasma species, as determined by in vitro broth-dilution studies, are summarized in Table V.
# Mycoplasma hyopneumoniae = experiment: in vitro broth-dilution studies, mycoplasma; type: cell-based; settings: Mesomycoplasma hyopneumoniae
# Source text: as §4
# Mycoplasma hyorhinis = experiment: in vitro broth-dilution studies, mycoplasma; type: cell-based
# Source text: as §4
# Mycoplasma synoviae = experiment: in vitro broth-dilution studies, mycoplasma; type: cell-based; settings: Mycoplasmopsis synoviae
# Source text: as §4
# [16] = test system: Pasteurella multocida (bovine); experiment: in vitro activity against Pasteurella multocida (bovine); type: cell-based
# Source text: (§5) The activity of representative compounds of this invention (R^2 =H in group tested) against P. multocida and the Pseudomonas sp. is summarized in Table VI.
# [17] = test system: Pasteurella multocida (turkey); experiment: in vitro activity against Pasteurella multocida (turkey); type: cell-based
# Source text: as §5
# Pseudomonas sp. (fish) = experiment: in vitro activity against Pseudomonas sp. (fish); type: cell-based
# Source text: P. multocida, for example, is a causative agent of respiratory infection in cattle, poultry and swine. P. hemolytica is a major cause of respiratory disease in cattle. The activity of representative compounds of this invention (R^2 =H in group tested) against P. multocida and the Pseudomonas sp. is summarized in Table VI.
# [18] = test system: Streptococcus pneumoniae B1343; experiment: in vivo antimicrobial activity, experimental infection in mice, Streptococcus pneumoniae B1343; settings: sc, two doses, infecting challenge 30 × LD50 (ip), read-out: ED50 × 2
# Method: as §1
# swine dysentery = settings: cited from earlier work
# [19] = Staphylococcus aureus, 3055, po, oral, infecting challenge 500 × LD50 (ip)
# [20] = Staphylococcus aureus, 3055, po, oral, infecting challenge 3400 × LD50 (ip)
smiles,measurement,setting,value
CC[C@]1(C)C[C@@H](OC(=O)CS[C@@H]2OC[C@@H](O)[C@H](O)[C@H]2O)[C@]2(C)[C@H](C)CC[C@]3(CCC(=O)[C@H]32)[C@@H](C)[C@@H]1O,LD50,"[1]; intraperitoneal injection, mice",> 1500 mg/kg
same,MIC,Pasteurella hemolytica,10.4 µg/mL
same,MIC,"Spiroplasma citri; Spiroplasma citri, in vitro, read-out: inhibits the growth of S. citri at levels as low as",≥ 0.01 µg/mL
same,inhibition of growth,Treponema hyodysenteriae; 0.5 mcg/ml agar concentration,inhibited growth
same,inhibition of growth,Treponema hyodysenteriae; 5.0 mcg/ml agar concentration,inhibited growth
same,inhibition of growth,Treponema hyodysenteriae; 50 mcg/ml agar concentration,inhibited growth
C=C[C@]1(C)C[C@@H](OC(=O)CS[C@@H]2OC[C@@H](O)[C@H](O)[C@H]2O)[C@]2(C)[C@H](C)CC[C@]3(CCC(=O)[C@H]32)[C@@H](C)[C@@H]1O [Compound 2],Units of Activity,[2],995 to 1003 µg/mg
same,LD50,[1],> 1500 mg/kg
same,ED50,[3]; [19],32.4 mg/kg
same,ED50,[3]; [20],44 mg/kg
same,ED50,"[3]; Staphylococcus aureus, 3055, sc, sc, infecting challenge 82 × LD50 (ip)",1.85 mg/kg
same,ED50,[4]; infecting challenge 370 × LD50 (ip),11.4 mg/kg
same,ED50,[5],65 mg/kg
same,ED50,[6],15.3 mg/kg
same,MIC,Actinomyces israelii,≤ 0.5 µg/mL
same,MIC,Clostridium perfringens,2 µg/mL
same,MIC,[7],1 µg/mL
same,MIC,Clostridium septicum,2 µg/mL
same,MIC,Eubacterium aerofaciens,1 µg/mL
same,MIC,[8],≤ 0.5 µg/mL
same,MIC,Peptococcus prevoti,≤ 0.5 µg/mL
same,MIC,[9],≤ 0.5 µg/mL
same,MIC,[10],≤ 0.5 µg/mL
same,MIC,Bacteroides fragilis 111,1 µg/mL
same,MIC,[11],1 µg/mL
same,MIC,[12],1 µg/mL
same,MIC,[13],> 128 µg/mL
same,MIC,[14],1 µg/mL
same,MIC,Bacteroides vulgatis,1 µg/mL
same,MIC,Bacteroides corrodens,1 µg/mL
same,MIC,Fusobacterium symbiosum,2 µg/mL
same,MIC,[15],≤ 0.5 µg/mL
same,MIC,Mycoplasma gallisepticum,0.78 µg/mL
same,MIC,Mycoplasma hyopneumoniae,≤ 0.15 µg/mL
same,MIC,Mycoplasma hyorhinis,0.39 µg/mL
same,MIC,Mycoplasma synoviae,0.78 µg/mL
same,MIC,Pasteurella hemolytica,12.5 µg/mL
same,MIC,[16],3.12 µg/mL
same,MIC,[17],6.25 µg/mL
same,MIC,Pseudomonas sp. (fish),6.25 µg/mL
same,Activity (color reaction),Spiroplasma citri; 0.01 ppm,"RO,RO"
same,Activity (color reaction),Spiroplasma citri; 0.05 ppm,"--,R"
same,Activity (color reaction),Spiroplasma citri; 0.1 ppm,"R,R"
same,Activity (color reaction),Spiroplasma citri; 1.0 ppm,"R,R"
same,inhibition of growth,Treponema hyodysenteriae; 0.5 mcg/ml agar concentration,inhibited growth
same,inhibition of growth,Treponema hyodysenteriae; 5.0 mcg/ml agar concentration,inhibited growth
same,inhibition of growth,Treponema hyodysenteriae; 50 mcg/ml agar concentration,inhibited growth
CC[C@]1(C)C[C@@H](OC(=O)CS[C@@H]2OC[C@@H](O)[C@H](O)[C@H]2O)[C@]2(C)[C@H](C)CC[C@]3(CCC(=O)[C@H]32)[C@@H](C)[C@@H]1O [Compound 3],Units of Activity,[2],1150 to 1243 µg/mg
same,ED50,[3]; [19],21 mg/kg
same,ED50,[3]; [20],29 mg/kg
same,ED50,"[3]; Staphylococcus aureus, 3055, sc, sc, infecting challenge 400 × LD50 (ip)",1.6 mg/kg
same,ED50,[4]; infecting challenge 500 × LD50 (ip),7 mg/kg
same,ED50,[5],58.5 mg/kg
same,ED50,[18],16.3 mg/kg
same,ED50,[6],13.2 mg/kg
same,MIC,Actinomyces israelii,0.5 µg/mL
same,MIC,Clostridium perfringens,2 µg/mL
same,MIC,[7],0.5 µg/mL
same,MIC,Clostridium septicum,1 µg/mL
same,MIC,Eubacterium aerofaciens,0.5 µg/mL
same,MIC,[8],0.5 µg/mL
same,MIC,Peptococcus prevoti,≤ 0.125 µg/mL
same,MIC,[9],≤ 0.125 µg/mL
same,MIC,[10],0.5 µg/mL
same,MIC,Bacteroides fragilis 111,2 µg/mL
same,MIC,[11],1 µg/mL
same,MIC,[12],1 µg/mL
same,MIC,[13],0.25 µg/mL
same,MIC,[14],0.5 µg/mL
same,MIC,Bacteroides vulgatis,1 µg/mL
same,MIC,Bacteroides corrodens,1 µg/mL
same,MIC,Fusobacterium symbiosum,1 µg/mL
same,MIC,[15],1 µg/mL
same,MIC,Mycoplasma gallisepticum,0.39 µg/mL
same,MIC,Mycoplasma hyopneumoniae,≤ 0.15 µg/mL
same,MIC,Mycoplasma hyorhinis,0.39 µg/mL
same,MIC,Mycoplasma synoviae,0.39 µg/mL
same,MIC,[16],6.25 µg/mL
same,MIC,[17],6.25 µg/mL
same,MIC,Pseudomonas sp. (fish),12.5 µg/mL
same,Activity (color reaction),Spiroplasma citri; 0.01 ppm,R
same,Activity (color reaction),Spiroplasma citri; 0.05 ppm,R
same,Activity (color reaction),Spiroplasma citri; 0.1 ppm,R
same,Activity (color reaction),Spiroplasma citri; 1.0 ppm,R
C=C[C@]1(C)C[C@@H](OC(=O)CO)[C@]2(C)[C@H](C)CC[C@]3(CCC(=O)[C@H]32)[C@@H](C)[C@@H]1O [pleuromutilin],effectiveness in the treatment of swine dysentery (in words),swine dysentery,effective in the treatment of swine dysentery
